Where two headings read alike, the source gives them in different places.
Experiments:
Assay in all cases: biolayer interferometry
Type in all cases: binding
metadherin (MTDH) [1] = biological target: T1, metadherin (MTDH) (Homo sapiens, UniProt Q86UE4)
T1 sequence (Q86UE4 1-582): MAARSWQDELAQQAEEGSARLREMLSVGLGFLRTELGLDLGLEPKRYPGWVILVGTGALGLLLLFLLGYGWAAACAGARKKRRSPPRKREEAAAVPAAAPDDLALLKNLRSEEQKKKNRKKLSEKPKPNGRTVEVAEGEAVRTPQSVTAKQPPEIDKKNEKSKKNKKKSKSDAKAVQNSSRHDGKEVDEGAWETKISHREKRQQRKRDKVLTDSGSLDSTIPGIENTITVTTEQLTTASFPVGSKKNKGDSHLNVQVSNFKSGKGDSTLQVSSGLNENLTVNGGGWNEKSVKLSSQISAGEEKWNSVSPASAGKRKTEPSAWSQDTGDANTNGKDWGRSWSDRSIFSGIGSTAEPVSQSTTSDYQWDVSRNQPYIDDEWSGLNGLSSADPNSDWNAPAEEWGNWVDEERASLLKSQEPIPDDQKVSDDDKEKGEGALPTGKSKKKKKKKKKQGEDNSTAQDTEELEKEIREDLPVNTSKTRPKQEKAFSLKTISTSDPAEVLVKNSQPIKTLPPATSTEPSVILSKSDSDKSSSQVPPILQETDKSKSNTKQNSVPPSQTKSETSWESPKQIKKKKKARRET

[2] = biological target: T2, PX domain containing serine/threonine kinase-like (PXK) (Homo sapiens, UniProt Q7Z7A4)
T2 sequence (Q7Z7A4 1-578): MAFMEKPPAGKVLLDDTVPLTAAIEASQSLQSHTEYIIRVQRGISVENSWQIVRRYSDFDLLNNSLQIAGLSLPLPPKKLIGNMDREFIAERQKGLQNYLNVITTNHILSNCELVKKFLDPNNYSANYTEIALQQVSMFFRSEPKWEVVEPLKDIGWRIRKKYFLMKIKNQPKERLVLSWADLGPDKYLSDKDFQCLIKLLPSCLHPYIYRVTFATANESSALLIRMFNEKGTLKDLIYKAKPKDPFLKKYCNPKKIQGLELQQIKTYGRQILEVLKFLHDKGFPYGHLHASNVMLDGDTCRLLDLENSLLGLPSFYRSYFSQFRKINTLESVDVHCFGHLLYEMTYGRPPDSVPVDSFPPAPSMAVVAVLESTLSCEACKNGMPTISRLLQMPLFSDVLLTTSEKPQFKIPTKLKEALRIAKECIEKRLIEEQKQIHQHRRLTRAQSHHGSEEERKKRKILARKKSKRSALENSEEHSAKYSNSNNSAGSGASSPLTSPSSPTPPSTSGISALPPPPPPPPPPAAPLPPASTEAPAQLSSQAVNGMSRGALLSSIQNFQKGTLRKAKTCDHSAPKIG

metadherin (MTDH) [3] = biological target: T1, metadherin (MTDH); remark: listed apart in the source
[4] = biological target: T2, PX domain containing serine/threonine kinase-like (PXK); remark: listed apart in the source

Q: With `O=C(O[C@@H]1Cc2c(O)cc(O)cc2O[C@@H]1c1cc(O)c(O)c(O)c1)c1cc(O)c(O)c(O)c1` [EGCG] as the compound, how does the Kd (metadherin (MTDH) [1]) read?
A: Its Kd is 270 nM.

Q: And the Kd [2]?
A: The Kd was 2.42 mM.

Q: How did the Kd (metadherin (MTDH) [3]) turn out when `CC(=O)Oc1cc(OC(C)=O)c2c(c1)O[C@H](c1cc(OC(C)=O)c(OC(C)=O)c(OC(C)=O)c1)[C@H](OC(=O)c1cc(OC(C)=O)c(OC(C)=O)c(OC(C)=O)c1)C2` [ProEGCG] was run?
A: The Kd was 517 µM.

Q: And the Kd [4]?
A: The Kd was 1.7 mM.

— paper PMC10859541 (Journal of Pharmaceutical Analysis, 2023)
